{"source": "ChEMBL document CHEMBL1201862", "about": "“PubChem BioAssay data set” (2004)", "key": {"[1]": {"biological_target": "T1, Alkaline phosphatase, tissue-nonspecific isozyme (Homo sapiens, UniProt P05186)", "T1 sequence (P05186 whole entry)": "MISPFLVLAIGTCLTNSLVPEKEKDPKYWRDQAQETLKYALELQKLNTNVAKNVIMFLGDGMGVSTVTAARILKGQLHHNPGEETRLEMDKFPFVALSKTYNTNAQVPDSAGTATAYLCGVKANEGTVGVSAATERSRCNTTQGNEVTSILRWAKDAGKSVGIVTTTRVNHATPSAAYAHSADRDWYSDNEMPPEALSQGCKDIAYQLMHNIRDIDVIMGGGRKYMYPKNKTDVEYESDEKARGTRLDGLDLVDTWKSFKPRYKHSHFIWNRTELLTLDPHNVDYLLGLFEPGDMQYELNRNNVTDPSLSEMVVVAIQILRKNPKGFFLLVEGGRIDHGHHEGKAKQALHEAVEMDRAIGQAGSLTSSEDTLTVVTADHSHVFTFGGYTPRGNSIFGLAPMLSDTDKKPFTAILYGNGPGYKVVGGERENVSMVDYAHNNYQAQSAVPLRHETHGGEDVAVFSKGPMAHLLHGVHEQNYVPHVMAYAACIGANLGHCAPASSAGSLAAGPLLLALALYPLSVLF"}, "[2]": {"biological_target": "Scavenger receptor class B member 1 (Mus musculus, UniProt Q61009)", "sequence (Q61009 whole entry)": "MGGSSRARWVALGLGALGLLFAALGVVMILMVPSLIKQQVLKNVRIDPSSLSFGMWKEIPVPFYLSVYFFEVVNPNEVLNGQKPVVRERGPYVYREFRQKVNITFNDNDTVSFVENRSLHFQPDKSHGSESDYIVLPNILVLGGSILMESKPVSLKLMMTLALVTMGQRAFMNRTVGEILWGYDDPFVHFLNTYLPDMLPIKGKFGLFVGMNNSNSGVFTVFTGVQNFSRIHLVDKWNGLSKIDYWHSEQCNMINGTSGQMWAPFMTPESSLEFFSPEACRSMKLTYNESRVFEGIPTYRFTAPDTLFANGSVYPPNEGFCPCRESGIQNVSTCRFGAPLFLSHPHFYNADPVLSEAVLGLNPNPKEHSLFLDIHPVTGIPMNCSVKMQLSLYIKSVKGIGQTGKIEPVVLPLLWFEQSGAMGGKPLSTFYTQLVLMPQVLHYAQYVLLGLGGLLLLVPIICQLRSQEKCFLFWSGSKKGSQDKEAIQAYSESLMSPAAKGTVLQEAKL", "assay": "mouse SR-BI DiI-HDL uptake blockers – ldlA[mSR-BI] cells, fluorescence, cherry pick, dose response (AID 493194);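 also: cellular uptake of fluorescent DiI-labeled HDL measured as cell fluorescence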", "format": "functional, cell-based"}, "INS1": {"test_system": "INS1", "assay": "INS-1E survival protection against cytokine death – cell-based, luminescence, retest, dose response (AID 449756);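 also: cell death triggered by IL-1 beta plus TNF-alpha plus IFN-gamma mixture; protective hits raise ATP signal compared with cytokine alone wells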", "format": "functional", "conditions": "Rattus norvegicus"}, "[3]": {"biological_target": "Neurotensin receptor type 1 (Homo sapiens, UniProt P30989)", "sequence (P30989 whole entry)": "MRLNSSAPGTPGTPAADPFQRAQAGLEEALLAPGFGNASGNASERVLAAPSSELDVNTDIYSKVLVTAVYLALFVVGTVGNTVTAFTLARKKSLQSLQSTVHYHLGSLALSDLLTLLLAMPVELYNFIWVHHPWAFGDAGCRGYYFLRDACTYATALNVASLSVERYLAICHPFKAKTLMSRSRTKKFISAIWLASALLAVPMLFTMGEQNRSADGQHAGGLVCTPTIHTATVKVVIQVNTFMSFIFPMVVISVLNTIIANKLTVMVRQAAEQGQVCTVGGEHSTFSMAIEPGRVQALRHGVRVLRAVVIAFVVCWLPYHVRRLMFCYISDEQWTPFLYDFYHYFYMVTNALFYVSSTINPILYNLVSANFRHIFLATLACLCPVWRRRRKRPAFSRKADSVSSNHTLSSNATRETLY", "format": "functional"}, "[4]": {"biological_target": "G2/mitotic-specific cyclin-B1 (Homo sapiens, UniProt P14635)", "sequence (P14635 whole entry)": "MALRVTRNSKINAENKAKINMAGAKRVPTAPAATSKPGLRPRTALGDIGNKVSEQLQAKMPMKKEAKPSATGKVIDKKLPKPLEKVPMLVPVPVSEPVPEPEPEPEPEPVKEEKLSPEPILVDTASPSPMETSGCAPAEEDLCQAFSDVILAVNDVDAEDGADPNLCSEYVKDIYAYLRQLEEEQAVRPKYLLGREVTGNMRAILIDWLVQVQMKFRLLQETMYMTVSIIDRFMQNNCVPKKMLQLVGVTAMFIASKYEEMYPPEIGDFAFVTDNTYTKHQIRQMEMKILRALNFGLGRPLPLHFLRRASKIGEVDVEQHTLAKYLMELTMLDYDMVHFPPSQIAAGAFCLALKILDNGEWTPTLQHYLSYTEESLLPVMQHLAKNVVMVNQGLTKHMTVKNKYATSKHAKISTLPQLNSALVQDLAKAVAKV", "assay": "HeLa cell cycle G2/M accumulation – FACS, mechanism study for Wee1 degradation inhibitor project, late-stage follow-up, panel member Cyclin B Degradation (AID 2088)"}, "Wee1-like protein kinase": {"biological_target": "Wee1-like protein kinase (Homo sapiens, UniProt P30291)", "sequence (P30291 whole entry)": "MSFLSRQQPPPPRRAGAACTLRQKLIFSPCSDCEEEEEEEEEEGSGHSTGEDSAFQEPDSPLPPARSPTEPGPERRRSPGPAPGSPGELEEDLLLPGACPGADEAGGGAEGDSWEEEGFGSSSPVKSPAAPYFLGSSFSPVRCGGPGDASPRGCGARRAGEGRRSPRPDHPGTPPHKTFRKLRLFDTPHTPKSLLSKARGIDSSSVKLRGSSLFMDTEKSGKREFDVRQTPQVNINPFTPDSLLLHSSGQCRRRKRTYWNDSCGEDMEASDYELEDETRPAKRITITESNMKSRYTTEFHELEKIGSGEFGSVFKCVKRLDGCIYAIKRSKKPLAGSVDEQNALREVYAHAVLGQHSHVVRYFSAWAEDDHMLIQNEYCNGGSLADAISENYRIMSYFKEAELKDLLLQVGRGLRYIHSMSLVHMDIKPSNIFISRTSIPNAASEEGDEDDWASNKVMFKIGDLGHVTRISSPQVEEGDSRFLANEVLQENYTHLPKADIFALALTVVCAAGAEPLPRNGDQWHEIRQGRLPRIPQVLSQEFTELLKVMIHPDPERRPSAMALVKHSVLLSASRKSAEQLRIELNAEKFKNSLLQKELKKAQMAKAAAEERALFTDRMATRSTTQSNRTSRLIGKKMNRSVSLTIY", "assay": "HeLa cell cycle G2/M accumulation – FACS, mechanism study for Wee1 degradation inhibitor project, late-stage follow-up, panel member Wee1 Degradation (AID 2088)"}, "[5]": {"assay": "NIH-3T3 fibroblast cytotoxicity, dose response, cytotoxicity control, cell-based, fluorescence, Alamar Blue, secondary assay (AID 2327);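 also: NIH-3T3 mouse fibroblasts cultured with fluconazole at 8 µg/mL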", "format": "functional"}, "[6]": {"assay": "fluconazole-exposed Candida albicans growth modulators – fluorescence, retest, confirmation (AID 2467)", "format": "functional, cell-based"}, "[7]": {"assay": "A cytotoxicity screen of small molecule inhibitors of the PhoP region in Salmonella typhi identified in the primary screen. [Related pubchem assays: 1850, 1864, 1985 ]", "format": "functional"}, "[8]": {"assay": "Luminescence Cell-Based Dose Retest to Confirm Inhibitors of Cancer Stem Cells. [Related pubchem assays (depositor defined):AID2717, AID2721]", "format": "functional", "conditions": "Homo sapiens"}, "Cytochrome P450 2C9": {"biological_target": "Cytochrome P450 2C9 (Homo sapiens, UniProt P11712)", "sequence (P11712 whole entry)": "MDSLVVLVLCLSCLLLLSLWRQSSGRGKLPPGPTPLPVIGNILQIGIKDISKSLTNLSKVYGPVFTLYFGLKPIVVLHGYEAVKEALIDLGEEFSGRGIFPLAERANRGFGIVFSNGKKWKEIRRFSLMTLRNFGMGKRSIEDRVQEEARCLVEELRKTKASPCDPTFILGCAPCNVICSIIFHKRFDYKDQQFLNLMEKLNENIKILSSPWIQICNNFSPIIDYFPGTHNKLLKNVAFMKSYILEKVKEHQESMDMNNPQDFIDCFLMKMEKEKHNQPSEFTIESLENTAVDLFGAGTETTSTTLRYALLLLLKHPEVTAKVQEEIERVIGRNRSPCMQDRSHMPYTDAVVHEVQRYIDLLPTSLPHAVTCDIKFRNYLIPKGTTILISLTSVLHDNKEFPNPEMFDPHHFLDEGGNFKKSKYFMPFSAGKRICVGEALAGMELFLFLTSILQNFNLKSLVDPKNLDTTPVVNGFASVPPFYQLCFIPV", "conditions": "Potency"}, "[9]": {"biological_target": "T2, Zinc finger protein mex-5 (Caenorhabditis elegans, UniProt Q9XUB2)", "T2 sequence (Q9XUB2 whole entry)": "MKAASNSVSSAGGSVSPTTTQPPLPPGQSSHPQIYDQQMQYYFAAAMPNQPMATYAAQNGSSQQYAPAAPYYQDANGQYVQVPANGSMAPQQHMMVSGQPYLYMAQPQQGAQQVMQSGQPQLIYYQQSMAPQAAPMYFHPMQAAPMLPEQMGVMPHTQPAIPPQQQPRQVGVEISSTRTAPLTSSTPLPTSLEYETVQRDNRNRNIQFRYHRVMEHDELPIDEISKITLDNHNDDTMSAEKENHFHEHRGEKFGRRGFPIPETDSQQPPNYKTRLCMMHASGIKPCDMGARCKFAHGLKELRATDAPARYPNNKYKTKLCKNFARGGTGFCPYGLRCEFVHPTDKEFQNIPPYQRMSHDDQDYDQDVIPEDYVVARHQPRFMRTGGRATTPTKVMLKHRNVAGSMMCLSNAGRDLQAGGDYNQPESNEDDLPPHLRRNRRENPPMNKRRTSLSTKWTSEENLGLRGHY", "assay": "potency of MEX-5 RNA-binding blockers – biochemical, C. elegans, fluorescence polarization, dose response (AID 1960)"}, "[10]": {"assay": "luciferase reporter signal suppression in cells – H4 neuroglioma cells, luminescence, dose response (AID 1990)", "format": "functional, cell-based"}, "[11]": {"biological_target": "T3, RNA-binding protein pos-1 (Caenorhabditis elegans, UniProt G5EF15)", "T3 sequence (G5EF15 whole entry)": "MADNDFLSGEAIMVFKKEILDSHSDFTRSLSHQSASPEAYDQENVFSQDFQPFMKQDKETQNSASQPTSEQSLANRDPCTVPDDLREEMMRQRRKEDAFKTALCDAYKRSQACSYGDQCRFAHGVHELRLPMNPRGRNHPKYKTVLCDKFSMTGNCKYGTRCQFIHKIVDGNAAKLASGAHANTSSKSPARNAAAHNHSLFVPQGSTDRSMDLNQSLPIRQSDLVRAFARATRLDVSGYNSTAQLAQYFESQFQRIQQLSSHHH", "assay": "disruptors of C. elegans POS-1 RNA interaction – biochemical, fluorescence polarization, dose response (AID 1964);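 also: purified POS-1 fused to maltose binding protein made in E. coli; potency of compounds blocking POS-1 binding to fluorescent RNA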"}, "[12]": {"assay": "alpha-synuclein stem-loop luciferase translation blockers – H4 neuroglioma cells, luminescence, confirmation (AID 1988)", "format": "functional, cell-based"}, "Cytochrome P450 2D6": {"biological_target": "Cytochrome P450 2D6 (Homo sapiens, UniProt P10635)", "sequence (P10635 whole entry)": "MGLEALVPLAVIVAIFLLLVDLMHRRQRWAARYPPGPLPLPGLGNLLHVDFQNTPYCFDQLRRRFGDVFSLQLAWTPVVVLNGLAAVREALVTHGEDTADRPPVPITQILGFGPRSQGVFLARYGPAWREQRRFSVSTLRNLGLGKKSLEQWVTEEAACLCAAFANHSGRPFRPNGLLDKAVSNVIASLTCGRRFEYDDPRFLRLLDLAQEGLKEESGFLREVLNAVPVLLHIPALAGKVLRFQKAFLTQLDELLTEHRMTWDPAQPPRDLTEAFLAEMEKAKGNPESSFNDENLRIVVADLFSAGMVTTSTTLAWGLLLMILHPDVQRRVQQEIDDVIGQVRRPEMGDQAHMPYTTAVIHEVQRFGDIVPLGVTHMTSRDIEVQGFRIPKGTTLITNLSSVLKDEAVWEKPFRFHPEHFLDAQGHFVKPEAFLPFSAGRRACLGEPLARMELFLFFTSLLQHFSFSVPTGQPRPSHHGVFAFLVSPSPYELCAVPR", "assay": "qHTS Assay for Inhibitors and Substrates of Cytochrome P450 2D6. [Related pubchem assays: 410 ]", "format": "ADME", "conditions": "read-out: Potency"}, "[13]": {"assay": "Luminescence Cell-Based Dose Response HTS to Identify Inhibitors of 5'UTR Stem-Loop Driven Prion Protein mRNA Translation in H4 Neuroglioblastoma Cells. [Related pubchem assays: 1827 (Project Summary), 1813 (Primary HTS)]", "format": "functional"}}, "note": "The source made the active and inactive calls.", "data": [{"smiles": "COc1cccc(N(C(=O)c2cc[nH]n2)C2(C(=O)Nc3c(C)cccc3C)CCCCC2)c1", "values": [{"measurement": "EC50", "setting": "[1]", "result": "52.9 µM (not active)"}]}, {"smiles": "Cc1ccccc1NC(=O)NCC1CCN(c2ccc(S(=O)(=O)N3CCOCC3)cc2)CC1", "values": [{"measurement": "AC50", "setting": "[2]", "result": "1.04 µM (active)"}]}, {"smiles": "c1ccc(C(c2ccccc2)N2CCN(c3nc4ccccc4n4cnnc34)CC2)cc1", "values": [{"measurement": "AC50", "setting": "INS1", "result": "4.56 µM (active)"}, {"measurement": "EC50", "setting": "[3]", "result": "26.4 µM (inactive)"}]}, {"smiles": "Cc1cc(O)nc(-n2nc(C)cc2NC(=O)c2cccc(Br)c2)n1", "values": [{"measurement": "EC50", "setting": "[4]", "result": "> 49.7 µM (inactive)"}, {"measurement": "EC50", "setting": "Wee1-like protein kinase", "result": "> 49.7 µM (inactive)"}]}, {"smiles": "Cc1ccc(N/N=C/c2ccncc2)cc1", "values": [{"measurement": "EC50", "setting": "[5]", "result": "14.4 µM (active)"}, {"measurement": "EC50", "setting": "[6]", "result": "> 38 µM (not active)"}, {"measurement": "EC50", "setting": "[7]", "result": "> 50 µM (active)"}, {"measurement": "AC50", "setting": "[8]", "result": "4.65 µM (active)"}]}, {"smiles": "COc1cc2c(cc1OC)-c1c(OC)c(OC)cc3ccnc(c13)C2=O", "note": "[OXOGLAUCINE]", "values": [{"measurement": "AC50", "setting": "Cytochrome P450 2C9", "result": "39.8 µM (inconclusive)"}, {"measurement": "EC50", "setting": "[9]", "result": "0.834 µM (active)"}, {"measurement": "EC50", "setting": "[10]", "result": "> 120 µM (not active)"}, {"measurement": "EC50", "setting": "[11]", "result": "68.6 µM (active)"}, {"measurement": "EC50", "setting": "[12]", "result": "7 µM (active)"}, {"measurement": "AC50", "setting": "Cytochrome P450 2D6", "result": "10 µM (inconclusive)"}, {"measurement": "EC50", "setting": "[13]", "result": "9.88 µM (active)"}]}]}
